# Tests used:
# MDA-MB-231 cell pAxl = biological target: T1, MDA-MB-231 cell pAxl (Homo sapiens, UniProt P30530); test: Inhibitory activity on cell pAxl, MDA-MB-231 cells, hGAS6 stimulation, Western Blot; assay type: cell-based; conditions: hGAS6 200 ng/mL
# T1 construct: endogenous in cells; host or cells: MDA-MB-231
# T1 sequence (P30530 26-894): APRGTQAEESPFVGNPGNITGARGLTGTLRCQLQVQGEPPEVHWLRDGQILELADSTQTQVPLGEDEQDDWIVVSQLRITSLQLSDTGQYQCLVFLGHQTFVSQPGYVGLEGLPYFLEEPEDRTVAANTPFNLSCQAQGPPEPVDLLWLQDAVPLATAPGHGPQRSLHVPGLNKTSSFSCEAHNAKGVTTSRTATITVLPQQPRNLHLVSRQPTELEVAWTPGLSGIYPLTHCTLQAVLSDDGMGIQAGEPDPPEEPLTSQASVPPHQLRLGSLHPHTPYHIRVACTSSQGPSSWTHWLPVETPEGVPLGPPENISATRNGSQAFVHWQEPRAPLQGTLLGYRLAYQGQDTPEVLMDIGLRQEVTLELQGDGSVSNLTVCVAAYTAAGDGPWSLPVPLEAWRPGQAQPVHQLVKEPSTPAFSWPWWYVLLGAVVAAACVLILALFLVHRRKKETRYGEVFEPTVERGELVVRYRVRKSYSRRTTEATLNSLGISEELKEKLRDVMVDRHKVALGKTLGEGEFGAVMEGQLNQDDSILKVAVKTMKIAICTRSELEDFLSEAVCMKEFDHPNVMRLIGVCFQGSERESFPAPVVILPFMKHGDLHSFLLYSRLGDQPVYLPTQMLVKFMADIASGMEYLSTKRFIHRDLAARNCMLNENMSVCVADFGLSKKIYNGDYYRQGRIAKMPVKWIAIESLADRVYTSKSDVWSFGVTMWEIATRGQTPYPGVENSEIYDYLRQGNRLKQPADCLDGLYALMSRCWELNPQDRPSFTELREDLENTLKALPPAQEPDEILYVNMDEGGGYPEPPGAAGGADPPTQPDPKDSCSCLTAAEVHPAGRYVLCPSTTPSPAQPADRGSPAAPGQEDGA
# Protocol: MDA-MB-231 is a breast cancer cell.
# MDA-MB-231 cells were inoculated to a 6-well plate (containing 10% FBS DMEM medium, […] cells per well) and adherently cultivated at 37° C., and 5% CO2 for 18 hrs. The cells were starved overnight, and then compound solutions with different concentrations were added. Compounds 1 and 2 had final concentrations of 1.1, 3.3 and 10 nM, and the remaining compounds had final concentrations of 1.1, 3.3, 10 and 30 nM. […] There was a medium containing 1‰DMSO in the negative control well. The cells were incubated at 37° C., and 5% CO2 for 60 min, and then hGAS6 (R&D, final concentration: 200 ng/mL) was added to each well. The cells were further incubated for 60 min, and then the total protein of the cells was extracted for Western Blot experiment. Gray analysis was performed on the results with Image J software, and IC50 values were calculated with GraphPad 5.0 software. The inhibitory activities of the compounds on cell pAxl were detected.
# Tyro-3 (h) = biological target: T2, Tyro-3 (h) (Homo sapiens, UniProt Q06418); test: Enzymatic activity assay, Tyro-3 (h), [γ-33P]-ATP filter assay; assay type: biochemical; conditions: 10 μM ATP, 40 min room temperature; read-out: Inhibitory activity IC50 Tyro-3(h)
# T2 sequence (Q06418 41-890): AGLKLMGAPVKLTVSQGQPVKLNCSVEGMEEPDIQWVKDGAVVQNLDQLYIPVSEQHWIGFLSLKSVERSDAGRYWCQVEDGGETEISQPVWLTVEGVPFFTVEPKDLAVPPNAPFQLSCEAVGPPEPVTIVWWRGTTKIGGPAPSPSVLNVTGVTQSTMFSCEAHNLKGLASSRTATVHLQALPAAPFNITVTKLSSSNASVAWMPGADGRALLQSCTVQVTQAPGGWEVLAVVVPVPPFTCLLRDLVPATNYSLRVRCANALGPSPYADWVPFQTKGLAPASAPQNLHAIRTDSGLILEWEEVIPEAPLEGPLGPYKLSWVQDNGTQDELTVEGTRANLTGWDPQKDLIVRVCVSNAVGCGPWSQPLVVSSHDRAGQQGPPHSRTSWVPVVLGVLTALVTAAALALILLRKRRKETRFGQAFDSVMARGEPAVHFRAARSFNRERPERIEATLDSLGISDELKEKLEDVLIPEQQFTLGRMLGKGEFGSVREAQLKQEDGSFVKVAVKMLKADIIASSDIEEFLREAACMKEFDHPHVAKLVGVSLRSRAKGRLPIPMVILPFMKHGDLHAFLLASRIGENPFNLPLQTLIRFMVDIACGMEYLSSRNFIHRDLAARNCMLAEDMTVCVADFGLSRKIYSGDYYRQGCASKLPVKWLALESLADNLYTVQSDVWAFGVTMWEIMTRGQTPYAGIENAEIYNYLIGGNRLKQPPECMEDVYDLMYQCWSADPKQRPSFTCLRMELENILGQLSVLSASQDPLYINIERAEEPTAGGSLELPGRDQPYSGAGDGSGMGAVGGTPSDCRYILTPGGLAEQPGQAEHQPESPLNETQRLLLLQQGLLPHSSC
# Protocol: Compounds were each dissolved in 100% DMSO to prepare stock solutions with a maximum concentration of 500 μM.
# Compound working solutions (50×) were prepared by diluting a compound stock solution to a final concentration of 500, 150, 50, 15, 5, 1.5, 0.5, 0.15 and 0.05 μM.
# An enzyme solution with a final concentration of 38 nM was prepared by dissolving Tyro3 (h) enzyme in a mixture of 8 mM MOPS (pH 7.0), 0.2 mM EDTA, 1 mM MnCl2 and 250 μM KVEKIGEGTYGVVYK. A Mg/ATP mixture of 10 mM magnesium acetate and 10 μM [γ-^33P]-ATP was used to activate the enzymatic reaction.
# A compound working solution was added to a 384-well plate, with final concentrations of 10,000, 3,000, 1,000, 300, 100, 30, 10, 3 and 1 nM, and then different enzymatic reaction solutions prepared according to the above conditions were added. The reaction solutions were incubated at room temperature for 40 min, and then 0.5% phosphoric acid solutions were added to terminate the reaction. 10 μL of the reaction solution was added dropwise to P30 filter paper, washed 4 times with a 0.425% phosphoric acid solution and once with methanol, and then placed in a scintillation counter for detection. Gray analysis was performed on the results with Image J software, and IC50 values were calculated with GraphPad 5.0 software.
IC50 (MDA-MB-231 cell pAxl),IC50 (Tyro-3 (h)),SMILES
< 1.1 nM,37 nM,"COc1cc2nccc(Oc3ccc(NC(=O)c4cn(CC5CCOCC5)cc(-c5ccc(C)cc5)c4=O)nc3)c2cc1OC [Compound 1, N-(5-((6,7-dimethoxyquinolin-4-yl)oxy)pyridin-2-yl)-4-oxo-1-((tetrahydro-2H-pyran-4-yl)methyl)-5-(p-tolyl)-1,4-dihydropyridin-3-carboxamide]"
< 1.1 nM,13 nM,"COc1cc2nccc(Oc3ccc(NC(=O)c4nn(CC5CCOCC5)cc(-c5ccc(C)cc5)c4=O)nc3)c2cc1OC [Compound 2, N-(5-((6,7-dimethoxyquinolin-4-yl)oxy)pyridin-2-yl)-4-oxo-1-((tetrahydro-2H-pyran-4-yl)methyl)-5-(p-tolyl)-1,4-dihydropyridazin-3-carboxamide]"
< 1.1 nM,178 nM,"COc1cc2nccc(Oc3cnc(NC(=O)c4cn(CC5CCOCC5)cc(-c5ccc(C)cc5)c4=O)nc3)c2cc1OC [Compound 4, N-(5-((6,7-dimethoxyquinolin-4-yl)oxy)pyrimidin-2-yl)-4-oxo-1-((tetrahydro-2H-pyran-4-yl)methyl)-5-(p-tolyl)-1,4-dihydropyridin-3-carboxamide]"
≤ 1.1 nM,192 nM,"COc1cc2nccc(Oc3ccc(NC(=O)c4cn(CC5CCS(=O)(=O)CC5)cc(-c5ccc(C)cc5)c4=O)nc3)c2cc1OC [Compound 7, N-(5-((6,7-dimethoxyquinolin-4-yl)oxy)pyridin-2-yl)-1-((1,1-dioxotetrahydro-2H-thiopyran-4-yl)methyl)-4-oxo-5-(p-tolyl)-1,4-dihydropyridin-3-carboxamide]"
≤ 1 nM,117 nM,"COc1cc2nccc(Oc3ccc(NC(=O)c4cn(CC5CC[S+]([O-])CC5)cc(-c5ccc(C)cc5)c4=O)nc3)c2cc1OC (centres unmarked) [Compound 8, N-(5-((6,7-dimethoxyquinolin-4-yl)oxy)pyridin-2-yl)-1-((1-oxotetrahydro-2H-thiopyran-4-yl)methyl)-4-oxo-5-(p-tolyl)-1,4-dihydropyridin-3-carboxamide]"
< 10 nM,28 nM,"COc1cc2nccc(Oc3ccc(NC(=O)c4cn(CC5CCSCC5)cc(-c5ccc(C)cc5)c4=O)nc3)c2cc1OC [Compound 9, N-(5-((6,7-dimethoxyquinolin-4-yl)oxy)pyridin-2-yl)-4-oxo-1-((tetrahydro-2H-thiopyran-4-yl)methyl)-5-(p-tolyl)-1,4-dihydropyridin-3-carboxamide]"
≤ 3.1 nM,94 nM,"COc1cc2nccc(Oc3ccc(NC(=O)c4cc(-c5ccc(C)cc5)cn(CC5CCOCC5)c4=O)nc3)c2cc1OC [Compound 13, N-(5-((6,7-dimethoxyquinolin-4-yl)oxy)pyridin 2yl)-2-oxo-1-((tetrahydro-2H-pyran-4-yl)methyl)-5-(p-tolyl)-1,2-dihydropyridin-3-carboxamide]"
< 1.1 nM,23 nM,"COc1cc2nccc(Oc3cnc(NC(=O)c4nn(CC5CCOCC5)cc(-c5ccc(C)cc5)c4=O)nc3)c2cc1OC [Compound 16, N-(5-((6,7-dimethoxyquinolin-4-yl)oxy)pyrimidin-2-yl)-4-oxo-1-((tetrahydro-2H-pyran-4-yl)methyl)-5-(p-tolyl)-1,4-dihydropyridazin-3-carboxamide]"
,37 nM,COc1cc2nccc(Oc3ccc(NC(=O)c4nn(C5CCOCC5)cc(-c5ccc(C)cc5)c4=O)cc3F)c2cc1OC [Compound 28]
,321 nM,"Cc1ccc(-c2cn(C3CCOCC3)nc(C(=O)Nc3ccc(Oc4ccnc5cc6c(cc45)OCO6)cn3)c2=O)cc1 [Compound 29, N-(5-([1,3]dioxolo[4,5-g]quinolin-8-yloxy)pyridin-2-yl)-4-oxo-1-(tetrahydro-2H-pyran-4-yl)-5-(p-tolyl)-1,4-dihydropyridazin-3-carboxamide]"
,318 nM,"Cc1ccc(-c2cn(C3CCOCC3)nc(C(=O)Nc3ccc(Oc4ccnc5cc6c(cc45)OCCO6)cn3)c2=O)cc1 [Compound 30, N-(5-((2,3-dihydro-[1,4]dioxino[2,3-g]quinolin-9-yl)oxy)pyridin-2-yl)-4-oxo-1-(tetrahydro-2H-pyran-4-yl)-5-(p-tolyl)-1,4-dihydropyridazin-3-carboxamide]"
,78 nM,"COc1cc2nccc(Oc3cnc(NC(=O)c4cn(C5CCOCC5)cc(-c5ccc(F)cc5)c4=O)nc3)c2cc1OC [Compound 31, N-(5-((6,7-dimethoxyquinolin-4-yl)oxy)pyrimidin-2-yl)-5-(4-fluorophenyl)-4-oxo-1-(tetrahydro-2H-pyran-4-yl)-1,4-dihydropyridin-3-carboxamide]"
,35 nM,"COc1cc2nccc(Oc3ccc(NC(=O)c4cc(CC5CCOCC5)cn(-c5ccc(F)cc5)c4=O)nc3)c2cc1OC [Compound 32, N-(5-((6,7-dimethoxyquinolin-4-yl)oxy)pyridin-2-yl)-1-(4-fluorophenyl)-2-oxo-5-((tetrahydro-2H-pyran-4-yl)methy 1)-1,2-dihydropyridin-3-carboxamide]"
,23 nM,"COc1cc2nccc(Oc3cnc(NC(=O)c4nn(C5CCOCC5)cc(-c5ccc(F)cc5)c4=O)nc3)c2cc1OC [Compound 33, N-(5-((6,7-dimethoxyquinolin-4-yl)oxy)pyrimidin-2-yl)-5-(4-fluorophenyl)-4-oxo-1-(tetrahydro-2H-pyran-4-yl)-1,4-dihydropyridazin-3-carboxamide]"
,19 nM,"COc1cc2nccc(Oc3ccc(NC(=O)c4nn(C5CCOCC5)cc(-c5ccc(F)cc5)c4=O)nc3)c2cc1OC [Compound 34, N-(5-((6,7-dimethoxyquinolin-4-yl)oxy)pyridin-2-yl)-5-(4-fluorophenyl)-4-oxo-1-(tetrahydro-2H-pyran-4-yl)-1,4-dihydropyridazin-3-carboxamide]"
